Measured values: the supplement of paper PMC6045584
± gives the standard deviation of the averaged measurements.

Experiments:
MK0752 = compound: O=C(O)CC[C@H]1CC[C@@](c2cc(F)ccc2F)(S(=O)(=O)c2ccc(Cl)cc2)CC1 [MK0752]; test: surviving fraction relative to DMSO-only wells; higher = less growth inhibition; settings: exposure time: 5 days
Summary of the method: (§1)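 Viability values are CellTiter-Glo luminescence readings, given as surviving fraction against the median of DMSO-only wells. The readings were taken after 10 minutes at room temperature, following five days of continuous exposure to inhibitors at 0.5, 1, 5, 10, 50, 100, 500 and 1000 nM that began 24 hours after log-phase tumour cell lines were seeded at 250–500 cells per well in 384-well plates. Every line was screened three times and kept only if replicate Pearson r >0.7 and median Z' >0.3.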

PLX-4720 = compound: CCCS(=O)(=O)Nc1ccc(F)c(C(=O)c2c[nH]c3ncc(Cl)cc23)c1F [PLX-4720]; test: as above; settings: exposure time: 5 days
Summary of the method: as §1

| Test System | surviving fraction (MK0752; 0.5 nM) | surviving fraction (MK0752; 1 nM) | surviving fraction (MK0752; 5 nM) | surviving fraction (MK0752; 10 nM) | surviving fraction (MK0752; 50 nM) | surviving fraction (MK0752; 100 nM) | surviving fraction (MK0752; 500 nM) | surviving fraction (MK0752; 1000 nM) | surviving fraction (PLX-4720; 0.5 nM) | surviving fraction (PLX-4720; 1 nM) | surviving fraction (PLX-4720; 5 nM) | surviving fraction (PLX-4720; 10 nM) | surviving fraction (PLX-4720; 50 nM) | surviving fraction (PLX-4720; 100 nM) | surviving fraction (PLX-4720; 500 nM) | surviving fraction (PLX-4720; 1000 nM) |
| --- | --- | --- | --- | --- | --- | --- | --- | --- | --- | --- | --- | --- | --- | --- | --- | --- |
| HSSYII SYNOVIAL | 0.985 ± 0.056 | 1 ± 0.056 | 1.03 ± 0.063 | 1.02 ± 0.059 | 1.018 ± 0.0035 | 1.01 ± 0.017 | 0.978 ± 0.029 | 0.955 ± 0.046 | 0.231 ± 0.018 | 0.844 ± 0.038 | 0.694 ± 0.065 | 0.838 ± 0.03 | 0.385 ± 0.0033 | 0.9 ± 0.026 | 0.827 ± 0.016 | 0.987 ± 0.046 |
| MDAMB436 BREAST | 0.928 ± 0.052 | 0.895 ± 0.12 | 0.885 ± 0.051 | 0.901 ± 0.097 | 1.02 ± 0.13 | 0.881 ± 0.08 | 0.897 ± 0.062 | 0.856 ± 0.036 | 0.754 ± 0.019 | 0.831 ± 0.092 | 0.837 ± 0.052 | 0.821 ± 0.024 | 0.9 ± 0.096 | 0.943 ± 0.066 | 0.901 ± 0.062 | 0.909 ± 0.1 |
| HCC1806 BREAST | 0.974 ± 0.05 | 1.15 ± 0.15 | 1.23 ± 0.1 | 1.21 ± 0.086 | 1.28 ± 0.043 | 1.23 ± 0.14 | 1.19 ± 0.075 | 1.25 ± 0.025 | 0.727 ± 0.073 | 0.808 ± 0.067 | 0.861 ± 0.069 | 0.879 ± 0.042 | 0.858 ± 0.09 | 1.02 ± 0.052 | 0.855 ± 0.13 | 0.871 ± 0.076 |
| CHLA90 AUTONOMIC GANGLIA | 0.984 ± 0.034 | 1.05 ± 0.039 | 1.05 ± 0.04 | 1.009 ± 0.0045 | 1.01 ± 0.026 | 0.952 ± 0.044 | 1.1 ± 0.037 | 1.09 ± 0.018 | 0.333 ± 0.039 | 0.922 ± 0.041 | 0.753 ± 0.041 | 0.929 ± 0.044 | 0.371 ± 0.013 | 0.94 ± 0.018 | 0.98 ± 0.049 | 1.07 ± 0.061 |
| OS25HAL BONE | 1 ± 0.016 | 1.04 ± 0.029 | 1.022 ± 0.0072 | 0.99 ± 0.04 | 1.09 ± 0.0091 | 1.1 ± 0.048 | 1.02 ± 0.057 | 1.07 ± 0.02 | 0.902 ± 0.013 | 0.925 ± 0.016 | 0.934 ± 0.0061 | 0.942 ± 0.02 | 0.976 ± 0.01 | 0.98 ± 0.015 | 0.966 ± 0.0046 | 0.974 ± 0.014 |
| U2OS BONE | 1.05 ± 0.06 | 1.06 ± 0.015 | 1.08 ± 0.019 | 1.08 ± 0.034 | 1.1 ± 0.075 | 1.18 ± 0.031 | 1.02 ± 0.041 | 1.04 ± 0.058 | 0.914 ± 0.029 | 0.9627 ± 0.0058 | 0.949 ± 0.007 | 0.978 ± 0.035 | 1.06 ± 0.054 | 1.08 ± 0.059 | 1.07 ± 0.026 | 1.1 ± 0.039 |
| VP229 BREAST | 1.39 ± 0.087 | 1.15 ± 0.2 | 1.13 ± 0.092 | 1.17 ± 0.07 | 1.1 ± 0.2 | 1.05 ± 0.14 | 1.01 ± 0.14 | 0.901 ± 0.084 | 0.861 ± 0.03 | 0.838 ± 0.056 | 0.861 ± 0.055 | 0.887 ± 0.019 | 1.03 ± 0.065 | 1.1 ± 0.068 | 1.248 ± 0.0097 | 1.25 ± 0.13 |
| HCC202 BREAST | 1.28 ± 0.66 | 0.775 ± 0.51 | 0.94 ± 0.78 | 1.27 ± 0.18 | 1.23 ± 0.21 | 1.21 ± 0.1 | 1.31 ± 0.069 | 1.39 ± 0.36 | 0.964 ± 0.1 | 1.22 ± 0.12 | 1.08 ± 0.17 | 1.09 ± 0.046 | 1.2 ± 0.11 | 1.46 ± 0.26 | 1.12 ± 0.28 | 1.06 ± 0.33 |
| BT20 BREAST | 1.16 ± 0.11 | 1.03 ± 0.11 | 1.09 ± 0.12 | 1.1 ± 0.17 | 1.03 ± 0.17 | 0.941 ± 0.19 | 0.914 ± 0.096 | 0.829 ± 0.19 | 0.783 ± 0.2 | 0.849 ± 0.16 | 0.774 ± 0.065 | 0.803 ± 0.056 | 1.07 ± 0.1 | 1.03 ± 0.19 | 1.05 ± 0.087 | 1.12 ± 0.067 |
| HMT3552 BREAST | 1.05 | 1.07 | 1.01 | 0.985 | 1.04 | 1.16 | 1.11 | 1.12 | 1.04 | 0.993 | 1.01 | 0.978 | 1.23 | 1.17 | 1.11 | 1.1 |
| CAL120 BREAST | 1.009 ± 0.0055 | 1 ± 0.047 | 1.025 ± 0.0088 | 1.01 ± 0.024 | 1.03 ± 0.018 | 1.07 ± 0.028 | 1.023 ± 0.0088 | 1 ± 0.054 | 0.852 ± 0.027 | 0.899 ± 0.051 | 0.904 ± 0.04 | 0.881 ± 0.037 | 0.896 ± 0.022 | 0.946 ± 0.023 | 0.889 ± 0.071 | 0.911 ± 0.013 |
| 93VU HEADNECK | 1.19 ± 0.15 | 1.25 ± 0.054 | 1.14 ± 0.041 | 1.23 ± 0.086 | 1.16 ± 0.016 | 1.23 ± 0.088 | 1.13 ± 0.051 | 1.18 ± 0.1 | 0.755 ± 0.071 | 0.813 ± 0.082 | 0.798 ± 0.044 | 0.877 ± 0.024 | 1.08 ± 0.011 | 1.07 ± 0.081 | 0.998 ± 0.092 | 1.02 ± 0.054 |
| NOS1 BONE | 1.08 ± 0.058 | 1.19 ± 0.087 | 1.16 ± 0.12 | 1.27 ± 0.068 | 1.16 ± 0.042 | 1.28 ± 0.23 | 1.05 ± 0.083 | 1.08 ± 0.032 | 0.85 ± 0.15 | 1 ± 0.11 | 0.961 ± 0.069 | 0.994 ± 0.2 | 1.17 ± 0.059 | 1.25 ± 0.12 | 1.11 ± 0.12 | 0.911 ± 0.057 |
| ASKA SYNOVIAL | 1.12 ± 0.023 | 1.16 ± 0.02 | 1.24 ± 0.038 | 1.22 ± 0.025 | 1.22 ± 0.11 | 1.23 ± 0.1 | 1.14 ± 0.087 | 1.14 ± 0.017 | 0.402 ± 0.04 | 0.905 ± 0.07 | 0.923 ± 0.041 | 1 ± 0.096 | 0.635 ± 0.032 | 1.21 ± 0.033 | 1.02 ± 0.077 | 1.08 ± 0.045 |
| BT549 BREAST | 1.08 ± 0.14 | 1.09 ± 0.14 | 1.1 ± 0.18 | 1.11 ± 0.15 | 0.986 ± 0.1 | 1.04 ± 0.07 | 0.89 ± 0.095 | 1.03 ± 0.075 | 0.855 ± 0.11 | 0.839 ± 0.092 | 0.857 ± 0.092 | 0.902 ± 0.074 | 1.09 ± 0.036 | 1.29 ± 0.061 | 1.19 ± 0.03 | 1.05 ± 0.15 |
| HCC38 BREAST | 1.22 ± 0.34 | 1.15 ± 0.21 | 1.27 ± 0.18 | 1.24 ± 0.044 | 1.21 ± 0.15 | 1.34 ± 0.28 | 1.12 ± 0.03 | 1.1 ± 0.16 | 0.812 ± 0.15 | 0.836 ± 0.19 | 0.893 ± 0.14 | 0.911 ± 0.17 | 1.03 ± 0.11 | 1.05 ± 0.28 | 1.12 ± 0.1 | 1.03 ± 0.28 |
| COLO320DM LARGE INTESTINE | 1.09 ± 0.11 | 1.18 ± 0.065 | 1.16 ± 0.1 | 1.18 ± 0.049 | 1.14 ± 0.01 | 1.2 ± 0.087 | 1.17 ± 0.096 | 1.25 ± 0.27 | 0.376 ± 0.022 | 0.996 ± 0.12 | 0.921 ± 0.08 | 1.07 ± 0.11 | 0.462 ± 0.075 | 1.07 ± 0.086 | 1.03 ± 0.088 | 0.979 ± 0.079 |
| SYO1 SYNOVIAL | 1 ± 0.024 | 0.981 ± 0.029 | 0.9374 ± 0.0056 | 1 ± 0.042 | 1.04 ± 0.082 | 1.01 ± 0.02 | 0.98 ± 0.052 | 0.971 ± 0.018 | 0.336 ± 0.15 | 0.772 ± 0.089 | 0.658 ± 0.089 | 0.809 ± 0.043 | 0.408 ± 0.14 | 0.942 ± 0.017 | 0.865 ± 0.11 | 0.988 ± 0.061 |
| SUM149.B1*.S BREAST | 1.11 ± 0.05 | 1.12 ± 0.044 | 1.1 ± 0.041 | 1.117 ± 0.004 | 1.18 ± 0.046 | 1.2 ± 0.029 | 1.03 ± 0.045 | 1.06 ± 0.068 | 0.392 ± 0.028 | 0.793 ± 0.046 | 0.787 ± 0.036 | 0.8912 ± 0.0055 | 0.517 ± 0.056 | 0.968 ± 0.042 | 0.863 ± 0.038 | 1.02 ± 0.015 |
| SG27 HEADNECK | 0.973 ± 0.05 | 0.891 ± 0.052 | 1.05 ± 0.082 | 0.988 ± 0.096 | 1.01 ± 0.066 | 1.08 ± 0.047 | 0.933 ± 0.14 | 0.923 ± 0.16 | 0.659 ± 0.094 | 0.877 ± 0.1 | 0.962 ± 0.077 | 0.965 ± 0.12 | 0.788 ± 0.12 | 0.942 ± 0.11 | 0.928 ± 0.1 | 0.955 ± 0.1 |
